Data taken from patent US10201531B2, “Indazolyl-oxo-isothiazole compounds” (MOCHIDA PHARMACEUTICAL CO., LTD., priority 2015, dated 2019).

System: Nrf2
Experiment: Evaluation of Nrf2 activation ability (Nrf2d-LacZ / Keap1 HEK293 reporter, Beta-Glo luminescence)
Type: cell-based, human
Conditions: rated A/B/C, Pharmacological Test Example 1
Protocol: HEK293 cells constantly expressing Nrf2d-LacZ (human Nrf2 degron region fused to LacZ; Hirotsu et al, Genes to Cell, Vol. 16, pp. 406-415 (2011)) and human Keap1 were seeded 7,000 cells/27 μl/well on 384-well plates (Corning 384 Well Flat Clear Bottom White Polystyrene TC-Treated Microplates, Cat. #3707), and cultured overnight at 5% CO2, 37° C. in DMEM medium containing 10% FBS, 100 U/mL penicillin and 100 μg/mL streptomycin. 3 μL/well of a 0.1% DMSO solution of the compound of the invention was added to the cells, which were then cultured for 3 hours at 5% CO2, 37° C. Beta-Glo® reagent (Promega, Beta-Glo Assay System, Cat. #E4740) was added 15 μL/well and incubated for 1 hour at room temperature, and luminescence intensity was measured with a luminometer. Using CDDO-Im as a standard, Nrf2 activation ability was calculated given 100% as the luminescence under stimulus with 100 nM CDDO-Im.

| Compound | EC50 [nM] |
| --- | --- |
| [O-][s+]1nc(O)cc1-n1ncc2cc(-c3ccccc3F)ccc21 (centres unmarked) [Example 83] | < 1000 |
| [O-][s+]1nc(O)cc1-n1ncc2cc(-c3cccc(F)c3)ccc21 (centres unmarked) [Example 84] | < 1000 |
| [O-][s+]1nc(O)cc1-n1ncc2cc(-c3ccc(F)cc3)ccc21 (centres unmarked) [Example 85] | < 1000 |
| COc1ccc(-c2ccc3c(cnn3-c3cc(O)n[s+]3[O-])c2)cn1 (centres unmarked) [Example 86] | < 1000 |
| [O-][s+]1nc(O)cc1-n1ncc2cc(-c3ccc(N4CCCC4)nc3)ccc21 (centres unmarked) [Example 87] | 1000 to 5000 |
| [2H]c1cccc(-c2ccc3c(cnn3-c3cc(O)n[s+]3[O-])c2)n1 (centres unmarked) [Example 89] | < 1000 |
| [O-][s+]1nc(O)cc1-n1ncc2cc(-c3ccc(N4CCCCC4)nc3)ccc21 (centres unmarked) [Example 90] | < 1000 |
| [O-][s+]1nc(O)cc1-n1ncc2c(-c3cccnc3)cccc21 (centres unmarked) [Example 92] | 1000 to 5000 |
| [O-][s+]1nc(O)cc1-n1ncc2c(C3=CCC(F)(F)CC3)cccc21 (centres unmarked) [Example 93] | 1000 to 5000 |
| [O-][s+]1nc(O)cc1-n1ncc2c(C3=CCOCC3)cccc21 (centres unmarked) [Example 95] | 5000 to 10000 |
| COc1cc(-c2cccc3c2cnn3-c2cc(O)n[s+]2[O-])ccn1 (centres unmarked) [Example 97] | 1000 to 5000 |
| [O-][s+]1nc(O)cc1-n1ncc2c(-c3ccc(C4CC4)nc3)cccc21 (centres unmarked) [Example 98] | 1000 to 5000 |
| Cc1cncc(-c2cccc3c2cnn3-c2cc(O)n[s+]2[O-])c1 (centres unmarked) [Example 100] | 1000 to 5000 |
| Cn1cc(-c2cccc3c2cnn3-c2cc(O)n[s+]2[O-])cn1 (centres unmarked) [Example 101] | 1000 to 5000 |
| [O-][s+]1nc(O)cc1-n1ncc2ccc(C3=CCC(F)(F)CC3)cc21 (centres unmarked) [Example 102] | 1000 to 5000 |
| [O-][s+]1nc(O)cc1-n1ncc2ccc(C3=CCOCC3)cc21 (centres unmarked) [Example 103] | 1000 to 5000 |
| CC(C)(C)OC(=O)N1CC=C(c2ccc3cnn(-c4cc(O)n[s+]4[O-])c3c2)CC1 (centres unmarked) [Example 104] | 1000 to 5000 |
| [O-][s+]1nc(O)cc1-n1ncc2ccc(-c3ccc(N4CCCC4)nc3)cc21 (centres unmarked) [Example 106] | 1000 to 5000 |
| [O-][s+]1nc(O)cc1-n1ncc2c(-c3ccc(N4CCCC4)nc3)cccc21 (centres unmarked) [Example 107] | 1000 to 5000 |
| N#Cc1ccc(-c2ccc3c(cnn3-c3cc(O)n[s+]3[O-])c2)nc1 (centres unmarked) [Example 108] | 1000 to 5000 |
| COc1cc(-c2ccc3cnn(-c4cc(O)n[s+]4[O-])c3c2)ccn1 (centres unmarked) [Example 110] | 1000 to 5000 |

| Compound | EC50 [nM] |
| --- | --- |
| [O-][s+]1nc(O)cc1-n1ncc2ccc(-c3ccc(C4CC4)nc3)cc21 (centres unmarked) [Example 111] | 1000 to 5000 |
| Cc1cncc(-c2ccc3cnn(-c4cc(O)n[s+]4[O-])c3c2)c1 (centres unmarked) [Example 113] | 5000 to 10000 |
| [O-][s+]1nc(O)cc1-n1ncc2cc(-c3cccc(C(F)F)n3)ccc21 (centres unmarked) [Example 116] | < 1000 |
| Cc1cccc(-c2ccc3c(cnn3-c3cc(O)n[s+]3[O-])c2)n1 (centres unmarked) [Example 117] | < 1000 |
| Cc1cncc(-c2ccc3c(cnn3-c3cc(O)n[s+]3[O-])c2)n1 (centres unmarked) [Example 118] | 1000 to 5000 |
| [O-][s+]1nc(O)cc1-n1ncc2cc(-c3ccc(F)cn3)ccc21 (centres unmarked) [Example 119] | 1000 to 5000 |
| N#Cc1cccc(-c2ccc3c(cnn3-c3cc(O)n[s+]3[O-])c2)n1 (centres unmarked) [Example 120] | 1000 to 5000 |
| [O-][s+]1nc(O)cc1-n1ncc2cc(-c3ccc(Cl)cn3)ccc21 (centres unmarked) [Example 121] | 1000 to 5000 |
| [O-][s+]1nc(O)cc1-n1ncc2cc(-c3cnc(C4CC4)cn3)ccc21 (centres unmarked) [Example 122] | 1000 to 5000 |
| Cc1cnc(-c2ccc3c(cnn3-c3cc(O)n[s+]3[O-])c2)cn1 (centres unmarked) [Example 123] | < 1000 |
| COc1ncccc1-c1ccc2c(cnn2-c2cc(O)n[s+]2[O-])c1 (centres unmarked) [Example 124] | < 1000 |
| O=c1ccc(-c2ccc3c(cnn3-c3cc(O)n[s+]3[O-])c2)c[nH]1 (centres unmarked) [Example 125] | 1000 to 5000 |
| [O-][s+]1nc(O)cc1-n1ncc2cc(-c3ccc(N4CCOCC4)nc3)ccc21 (centres unmarked) [Example 126] | 1000 to 5000 |
| COc1cccc(-c2ccc3c(cnn3-c3cc(O)n[s+]3[O-])c2)n1 (centres unmarked) [Example 129] | < 1000 |
| [O-][s+]1nc(O)cc1-n1ncc2cc(-c3cccc(C(F)(F)F)n3)ccc21 (centres unmarked) [Example 130] | < 1000 |
| [O-][s+]1nc(O)cc1-n1ncc2cc(-c3ccc(C(F)(F)F)cn3)ccc21 (centres unmarked) [Example 132] | < 1000 |
| [O-][s+]1nc(O)cc1-n1ncc2cc(-c3cncc(N4CCCC4)c3)ccc21 (centres unmarked) [Example 135] | < 1000 |
| CN(C)c1ccc(-c2ccc3c(cnn3-c3cc(O)n[s+]3[O-])c2)cn1 (centres unmarked) [Example 136] | < 1000 |
| [O-][s+]1nc(O)cc1-n1ncc2cc(-c3cccc(N4CCCC4)n3)ccc21 (centres unmarked) [Example 138] | < 1000 |
| [O-][s+]1nc(O)cc1-n1ncc2cc(-c3ccc(N4CCCC4)cn3)ccc21 (centres unmarked) [Example 139] | < 1000 |
| [O-][s+]1nc(O)cc1-n1ncc2cc(-c3cnc(N4CCCCC4)cn3)ccc21 (centres unmarked) [Example 140] | < 1000 |

| Compound | EC50 [nM] |
| --- | --- |
| [O-][s+]1nc(O)cc1-n1ncc2cc(-c3cncc(N4CCCC4)n3)ccc21 (centres unmarked) [Example 141] | < 1000 |
| [O-][s+]1nc(O)cc1-n1ncc2cc(-c3cnc(N4CCOCC4)cn3)ccc21 (centres unmarked) [Example 142] | 1000 to 5000 |
| CCN1CCOc2cc(-c3ccc4c(cnn4-c4cc(O)n[s+]4[O-])c3)cnc21 (centres unmarked) [Example 143] | < 1000 |
| [O-][s+]1nc(O)cc1-n1ncc2cc(OCc3cccnc3)ccc21 (centres unmarked) [Example 144] | 1000 to 5000 |
| [O-][s+]1nc(O)cc1-n1ncc2cc(Oc3ccccc3)ccc21 (centres unmarked) [Example 148] | 1000 to 5000 |
| [O-][s+]1nc(O)cc1-n1ncc2cc(-c3cnc4c(c3)OCCN4C3CC3)ccc21 (centres unmarked) [Example 149] | < 1000 |
| [O-][s+]1nc(O)cc1-n1ncc2cc(-c3cnc4c(c3)OCCN4CC3CC3)ccc21 (centres unmarked) [Example 150] | < 1000 |
| O=C(C1CC1(F)F)N1CCOc2cc(-c3ccc4c(cnn4-c4cc(O)n[s+]4[O-])c3)cnc21 (centres unmarked) [Example 151] | < 1000 |
| [O-][s+]1nc(O)cc1-n1ncc2cc(-c3cnc4c(c3)OCCN4)ccc21 (centres unmarked) [Example 152] | 1000 to 5000 |
| [O-][s+]1nc(O)cc1-n1ncc2cc(-c3cncc(N4CCCCC4)c3)ccc21 (centres unmarked) [Example 153] | < 1000 |
| O=C(c1ccc(-c2ccc3c(cnn3-c3cc(O)n[s+]3[O-])c2)cn1)N1CCCC1 (centres unmarked) [Example 157] | 1000 to 5000 |
| CN1CCc2cc(-c3ccc4c(cnn4-c4cc(O)n[s+]4[O-])c3)cnc21 (centres unmarked) [Example 158] | < 1000 |
| O=C(NC1CCCCC1)N1CCC(c2ccc3c(cnn3-c3cc(O)n[s+]3[O-])c2)CC1 (centres unmarked) [Example 159] | 5000 to 10000 |
| CC(C)CN1CCOc2cc(-c3ccc4c(cnn4-c4cc(O)n[s+]4[O-])c3)cnc21 (centres unmarked) [Example 160] | < 1000 |
| [O-][s+]1nc(O)cc1-n1ncc2cc(-c3ccc(N4CCC5(COC5)C4)nc3)ccc21 (centres unmarked) [Example 161] | < 1000 |
| [O-][s+]1nc(O)cc1-n1ncc2cc(-c3cnc4c(c3)OCCN4CC3CCC3)ccc21 (centres unmarked) [Example 162] | < 1000 |
| CN1C(=O)CCc2cc(-c3ccc4c(cnn4-c4cc(O)n[s+]4[O-])c3)cnc21 (centres unmarked) [Example 164] | 5000 to 10000 |
| CN1CCOc2ncc(-c3ccc4c(cnn4-c4cc(O)n[s+]4[O-])c3)cc21 (centres unmarked) [Example 165] | 1000 to 5000 |
| COc1cc(-c2cccnc2)c2cnn(-c3cc(O)n[s+]3[O-])c2c1 (centres unmarked) [Example 166] | 1000 to 5000 |
| COc1cc(-c2cncc(C)c2)c2cnn(-c3cc(O)n[s+]3[O-])c2c1 (centres unmarked) [Example 167] | 1000 to 5000 |
